Laboratory results: US20170190691A1, “NOVEL 5-ACYLSULFANYL-HISTIDINE COMPOUNDS AS PRECURSORS OF THE CORRESPONDING 5-SULFANYLHISTIDINES AND THEIR DISULFIDES” (TETRAGEDRON, priority 2014, published 2017)

Columns and labels:
Assay type in all cases: physicochemical
[1] = Analytical monitoring by HPLC of the hydrolysis of compound 3 and oxidation in situ into compound 27, aqueous fraction at 40° C.; settings: water; for % hydrolysis: HPLC
Protocol: e) Analytical monitoring by HPLC of the hydrolysis of the 5-acylsulfanyl compound 3 and oxidation in situ into compound 27
Compound 3 is prepared and purified by column as described in Example 5, using an ethyl acetate/ethanol gradient, followed by elution with water. The aqueous fraction containing the pure compound 3 is placed in a water bath at 40° C. and heated under stirring for two days. Samples are collected every hour, and the mixture is analyzed by HPLC.

[2] = Hydrolysis of compound 3 in water at 90° C. in air, monitored by HPLC; settings: after 7 h
Protocol: c) Preparation of the compound L-5-sulfanyl-α,N,N,N(trimethyl)-histidine (compound 26) by hydrolysis of the 5-acylsulfanyl compound 3
Compound 3 is prepared and purified by column as described in Example 5. 170 mg (0.6 mmoles) of compound 3 are dissolved in 10 mL of water, and the solution is heated at 90° C. in air for 7 h. The conversion is monitored by HPLC. The hydrolysis of compound 3 is complete after 7 h. The solution is evaporated to dryness. The residue is dissolved in a mixture of 5 mL of methanol and 93 mg (0.6 mmol) of dithiothreitol. After stirring for 4 h under an inert atmosphere, 2 mL of ethanol are added. A precipitate forms immediately, which is filtered and washed with ethanol (2×2 mL), then with ethyl ether (2×2 mL). After drying, 104 mg (72%) of L-5-sulfanyl-α,N,N,N(trimethyl)-histidine are obtained in the form of a beige powder.

[3] = Analytical monitoring by 1H NMR and HPLC-ELSD of the hydrolysis of compound 3 into compound 26 in the presence of a thiol (3-mercaptopropionic acid), D2O, 40° C.; settings: 5 equivalents 3-mercaptopropionic acid
Protocol: b) Analytical monitoring by ^1H NMR of the hydrolysis of the 5-acylsulfanyl compound 3 into the compound L-5-sulfanyl-α,N,N,N(trimethyl)-histidine (Compound 26) in the presence of a thiol
Compound 3 is prepared and purified by column as described in Example 5. 100 mg (0.33 mmoles, 1 eq.) of compound 3 are dissolved in 2.4 mL of D2O. 172 mg of 3-mercaptopropionic acid (142 μL, 5 equivalents) are added, and the solution is heated at 40° C. The conversion is monitored by ^1H NMR and by HPLC-ELSD. The yield of hydrolysis of compound 3 is 90% after 3 h (monitored by ^1H NMR). Compound 26 is formed after 3 h 30 with a yield of 97% (HPLC-ELSD).

[4] = Analytical monitoring by 1H NMR of the hydrolysis of compound 3 and oxidation in situ into compound 27, D2O at ambient temperature; settings: for % hydrolysis: 1H NMR
Protocol: f) Analytical monitoring by ^1H NMR of the hydrolysis of the 5-acylsulfanyl compound 3 and oxidation in situ into compound 27
Compound 3 is prepared and purified by column as described in Example 5. 30 mg of compound 3 are dissolved in 600 μL of D2O, the solution is transferred to an NMR tube, which is stored at ambient temperature. The conversion is monitored by ^1H NMR.

CC(=O)Sc1nc[nH]c1C[C@@H](C(=O)[O-])[N+](C)(C)C [Compound 3, L-5-acetylsulfanyl-α,N,N,N(trimethyl)-histidine]
hydrolysis of compound 3 (extent, in words) ([1]; after 2 days): nearly complete
yield of compound 27 from hydrolysis and in situ oxidation of compound 3 ([1]; after 2 days): 80%
% hydrolysis ([1]; t = 0 h): 0%
% hydrolysis ([1]; t = 2 j): 95%
% hydrolysis ([1]; t = 2 h): 7%
% hydrolysis ([1]; t = 4 h): 21%
% hydrolysis ([1]; t = 6 h): 38%
% hydrolysis ([1]; t = 8 h): 60%
% hydrolysis ([1]; t = 18 h): 85%
hydrolysis of compound 3 (extent, in words) [2]: complete
yield of compound 26 formed from compound 3 ([3]; after 3 h 30, HPLC-ELSD): 97%
yield of hydrolysis of compound 3 ([3]; after 3 h, 1H NMR): 90%
hydrolysis of compound 3 (extent, in words) ([4]; after 2 days): nearly complete
% hydrolysis ([4]; t = 0 h): 0%
% hydrolysis ([4]; t = 2 j): 86%
% hydrolysis ([4]; t = 2 h): 19%
% hydrolysis ([4]; t = 10 h): 26%
